The values that follow come from patent US20250042929A1, “NEW CRYSTAL FORM OF TRISACCHARIDE” (SHANDONG HENGLU BIOTECH. CO., LTD., priority 2022, published 2025).

The nature of the first data set: Hygroscopicity study in constant temperature and humidity chamber. Type of data set: physicochemical. The note with it: 25° C., 75% relative humidity, 5 days; crystalline form A compared with amorphous powder. On the procedure: • Step 1: Preparation of glass petri dishes
One day before the experiment, place glass petri dishes (without lids) in a constant temperature and humidity chamber set at 25±1° C. and 75±2% relative humidity for 4 hours. Take out the dishes, accurately weigh, and repeat until consistent weight readings are obtained. Record the data in Table 3. • Step 2: Weigh the amorphous LNTII powder and LNTII crystalline form A from Example 1 separately, place them in the pre-weighed petri dishes from Step 1 in a constant temperature and humidity chamber set at 25° C. and 75% relative humidity. After 5 days, examine any physical changes, reweigh the samples, and calculate their hygroscopicity. Record the results in Tables 2 and 3. A comparison of the physical appearances before and after moisture exposure are depicted in FIG. 5 and FIG. 6.
Replicating the procedure outlined in Example 8, evaluate the LNTII crystalline form A samples obtained from Examples 1-7. Place the samples in pre-weighed petri dishes within a constant temperature and humidity chamber at 25° C. and 75% relative humidity. After 5 days, inspect for any changes in appearance, weigh the samples, and calculate their hygroscopicity. Document the findings in Table 4.
Consider `CC(=O)NC1C(O)[C@H](O)C(CO)O[C@H]1OC1C(O)[C@H](O[C@H]2C(CO)OC(O)C(O)C2O)OC(CO)[C@@H]1O` (stereo partly drawn) [LNTII form A, Lacto-N-triose II], for which the “Stability (from appearance changes and hygroscopicity results), in words” value is reported as “superior to the amorphous powder”.

Still in this data set, the particulars now being: Example 8; 25° C., 75% relative humidity, 5 days.
On to `CC(=O)NC1C(O)[C@H](O)C(CO)O[C@H]1OC1C(O)[C@H](O[C@H]2C(CO)OC(O)C(O)C2O)OC(CO)[C@@H]1O` (stereo partly drawn) [LNTII amorphous powder, Lacto-N-triose II, reference compound], for which the “Moisture rate (moisture absorption rate = added weight/sample weight × 100%)” value was found to be 29.47%.

`CC(=O)NC1C(O)[C@H](O)C(CO)O[C@H]1OC1C(O)[C@H](O[C@H]2C(CO)OC(O)C(O)C2O)OC(CO)[C@@H]1O` (stereo partly drawn) [LNTII form A, Lacto-N-triose II]: the “Moisture rate (moisture absorption rate = added weight/sample weight × 100%)” value worked out at 14.17%.

Staying with this data set, now noted: Example 8; 25° C., 75% relative humidity, 5 days, open petri dish.
Consider `CC(=O)NC1C(O)[C@H](O)C(CO)O[C@H]1OC1C(O)[C@H](O[C@H]2C(CO)OC(O)C(O)C2O)OC(CO)[C@@H]1O` (stereo partly drawn) [LNTII amorphous powder, Lacto-N-triose II, reference compound], for which the “Day 5, appearance” value was “Light yellow, paste”.

The same data set, now with this note: Example 8; 25° C., 75% relative humidity, 5 days; about 1 g sample.
`CC(=O)NC1C(O)[C@H](O)C(CO)O[C@H]1OC1C(O)[C@H](O[C@H]2C(CO)OC(O)C(O)C2O)OC(CO)[C@@H]1O` (stereo partly drawn) [LNTII amorphous powder, Lacto-N-triose II, reference compound] showed an Added weight of 0.2951 g.

The compound `CC(=O)NC1C(O)[C@H](O)C(CO)O[C@H]1OC1C(O)[C@H](O[C@H]2C(CO)OC(O)C(O)C2O)OC(CO)[C@@H]1O` (stereo partly drawn) [LNTII form A, Lacto-N-triose II] yielded an Added weight of 0.1418 g.

The data set is the same for the next values; noted with them: Example 8; before placing in chamber.
Take `CC(=O)NC1C(O)[C@H](O)C(CO)O[C@H]1OC1C(O)[C@H](O[C@H]2C(CO)OC(O)C(O)C2O)OC(CO)[C@@H]1O` (stereo partly drawn) [LNTII amorphous powder, Lacto-N-triose II, reference compound]: the “Before the experiment, appearance” value is on record as “Off-white powder”.

For `CC(=O)NC1C(O)[C@H](O)C(CO)O[C@H]1OC1C(O)[C@H](O[C@H]2C(CO)OC(O)C(O)C2O)OC(CO)[C@@H]1O` (stereo partly drawn) [LNTII form A, Lacto-N-triose II], the “Before the experiment, appearance” value was “Off-white”.

The data set is the same for the next values; noted with them: Example 9; 25° C., 75% relative humidity, after 5 days.
Compound `CC(=O)NC1C(O)[C@H](O)C(CO)O[C@H]1OC1C(O)[C@H](O[C@H]2C(CO)OC(O)C(O)C2O)OC(CO)[C@@H]1O` (stereo partly drawn) [Example 1 Crystalline form A, Lacto-N-triose II] showed a Moisture rate of 12.87%.

Compound `CC(=O)NC1C(O)[C@H](O)C(CO)O[C@H]1OC1C(O)[C@H](O[C@H]2C(CO)OC(O)C(O)C2O)OC(CO)[C@@H]1O` (stereo partly drawn) [Example 2 Crystalline form A, Lacto-N-triose II] yielded a Moisture rate of 13.26%.

The next data set can be described thus: Stability study, sealed in aluminum-plastic composite film, 40° C. and 75% relative humidity. The following applies: 3 months, listed as LNTII crystalline form A. Format: physicochemical.
Regarding `CC(=O)NC1C(O)[C@H](O)C(CO)O[C@H]1OC1C(O)[C@H](O[C@H]2C(CO)OC(O)C(O)C2O)OC(CO)[C@@H]1O` (stereo partly drawn) [LNTII form A, Lacto-N-triose II], the “Content and appearance throughout the stability study, in words” value is “maintains its content and appearance throughout the stability study”.

The same data set, now with this note: 3 months, listed as amorphous LNTII powder.
On to `CC(=O)NC1C(O)[C@H](O)C(CO)O[C@H]1OC1C(O)[C@H](O[C@H]2C(CO)OC(O)C(O)C2O)OC(CO)[C@@H]1O` (stereo partly drawn) [LNTII amorphous powder, Lacto-N-triose II, reference compound], for which the “Content and appearance throughout the stability study, in words” value was “decreases the content and the color gradually fades to pale yellow”.

Assay in another data set: as above
Type of data set: physicochemical. The note with it: Day 0; LNTII content by HPLC. The method, then: In this invention, the quantification of LNTII is performed using high-performance liquid chromatography (HPLC) under the conditions listed below:
Chromatographic column: Asahipak NH2P-504E, 4.6 mm×250 mm, 5 μm particle size; mobile phase composition: acetonitrile to water in a ratio of 65:35; flow rate: 1 mL/min; detection method: UV-VIS detector; wavelength: 210 nm; column temperature: 30° C.; injection volume: 10 μL; total run time: 30 minutes.
Separately weigh 10 g of amorphous LNTII powder produced in Examples 1-7. Seal each sample with aluminum-plastic composite film. Store all samples in a constant temperature and humidity chamber at 40° C. and 75% relative humidity. Retrieve samples at the end of January, February, and March to assess the LNTII content and observe any changes in appearance. Record the outcomes in Table 5.
For `CC(=O)NC1C(O)[C@H](O)C(CO)O[C@H]1OC1C(O)[C@H](O[C@H]2C(CO)OC(O)C(O)C2O)OC(CO)[C@@H]1O` (stereo partly drawn) [Example 1 Crystalline form A, Lacto-N-triose II], the Content stood at 97.98%.

As to `CC(=O)NC1C(O)[C@H](O)C(CO)O[C@H]1OC1C(O)[C@H](O[C@H]2C(CO)OC(O)C(O)C2O)OC(CO)[C@@H]1O` (stereo partly drawn) [Example 2 Crystalline form A, Lacto-N-triose II], the Content was 98.18%.

The data set is the same for the next values; noted with them: Day 0; LNTII content by HPLC; listed as Amorphous LNTII powder.
For the compound `CC(=O)NC1C(O)[C@H](O)C(CO)O[C@H]1OC1C(O)[C@H](O[C@H]2C(CO)OC(O)C(O)C2O)OC(CO)[C@@H]1O` (stereo partly drawn) [LNTII amorphous powder, Lacto-N-triose II, reference compound], the Content is listed as 91.24%.

Staying with this data set, now noted: End of 1 month; 40° C., 75% relative humidity; HPLC.
In turn, `CC(=O)NC1C(O)[C@H](O)C(CO)O[C@H]1OC1C(O)[C@H](O[C@H]2C(CO)OC(O)C(O)C2O)OC(CO)[C@@H]1O` (stereo partly drawn) [Example 1 Crystalline form A, Lacto-N-triose II] came in with a Content of 98.02%.

`CC(=O)NC1C(O)[C@H](O)C(CO)O[C@H]1OC1C(O)[C@H](O[C@H]2C(CO)OC(O)C(O)C2O)OC(CO)[C@@H]1O` (stereo partly drawn) [Example 2 Crystalline form A, Lacto-N-triose II] returned a Content of 98.15%.

Still in this data set, the particulars now being: End of 1 month; 40° C., 75% relative humidity; HPLC; listed as Amorphous LNTII powder.
`CC(=O)NC1C(O)[C@H](O)C(CO)O[C@H]1OC1C(O)[C@H](O[C@H]2C(CO)OC(O)C(O)C2O)OC(CO)[C@@H]1O` (stereo partly drawn) [LNTII amorphous powder, Lacto-N-triose II, reference compound] had a Content of 91.01%.

The data set is the same for the next values; noted with them: End of 2 months; 40° C., 75% relative humidity; HPLC.
With `CC(=O)NC1C(O)[C@H](O)C(CO)O[C@H]1OC1C(O)[C@H](O[C@H]2C(CO)OC(O)C(O)C2O)OC(CO)[C@@H]1O` (stereo partly drawn) [Example 1 Crystalline form A, Lacto-N-triose II], the Content stood at 97.97%.

On to `CC(=O)NC1C(O)[C@H](O)C(CO)O[C@H]1OC1C(O)[C@H](O[C@H]2C(CO)OC(O)C(O)C2O)OC(CO)[C@@H]1O` (stereo partly drawn) [Example 2 Crystalline form A, Lacto-N-triose II], for which the Content is given as 98.22%.

Still in this data set, the particulars now being: End of 2 months; 40° C., 75% relative humidity; HPLC; listed as Amorphous LNTII powder.
As to `CC(=O)NC1C(O)[C@H](O)C(CO)O[C@H]1OC1C(O)[C@H](O[C@H]2C(CO)OC(O)C(O)C2O)OC(CO)[C@@H]1O` (stereo partly drawn) [LNTII amorphous powder, Lacto-N-triose II, reference compound], the Content worked out at 90.86%.

The same data set, now with this note: End of 3 months; 40° C., 75% relative humidity; HPLC.
`CC(=O)NC1C(O)[C@H](O)C(CO)O[C@H]1OC1C(O)[C@H](O[C@H]2C(CO)OC(O)C(O)C2O)OC(CO)[C@@H]1O` (stereo partly drawn) [Example 1 Crystalline form A, Lacto-N-triose II] yielded a Content of 97.96%.

`CC(=O)NC1C(O)[C@H](O)C(CO)O[C@H]1OC1C(O)[C@H](O[C@H]2C(CO)OC(O)C(O)C2O)OC(CO)[C@@H]1O` (stereo partly drawn) [Example 2 Crystalline form A, Lacto-N-triose II]: the Content stood at 98.23%.

The data set is the same for the next values; noted with them: End of 3 months; 40° C., 75% relative humidity; HPLC; listed as Amorphous LNTII powder.
Take `CC(=O)NC1C(O)[C@H](O)C(CO)O[C@H]1OC1C(O)[C@H](O[C@H]2C(CO)OC(O)C(O)C2O)OC(CO)[C@@H]1O` (stereo partly drawn) [LNTII amorphous powder, Lacto-N-triose II, reference compound]: the Content is 90.01%.
